The values that follow come from ChEMBL document CHEMBL5154870, “Discovery of novel glutaminase 1 allosteric inhibitor with 4-piperidinamine linker and aromatic heterocycles” (Eur J Med Chem, 2022).

Data set [1] has as its target T1, Glutaminase kidney isoform, mitochondrial (Homo sapiens, UniProt O94925).
T1 sequence (O94925 whole entry): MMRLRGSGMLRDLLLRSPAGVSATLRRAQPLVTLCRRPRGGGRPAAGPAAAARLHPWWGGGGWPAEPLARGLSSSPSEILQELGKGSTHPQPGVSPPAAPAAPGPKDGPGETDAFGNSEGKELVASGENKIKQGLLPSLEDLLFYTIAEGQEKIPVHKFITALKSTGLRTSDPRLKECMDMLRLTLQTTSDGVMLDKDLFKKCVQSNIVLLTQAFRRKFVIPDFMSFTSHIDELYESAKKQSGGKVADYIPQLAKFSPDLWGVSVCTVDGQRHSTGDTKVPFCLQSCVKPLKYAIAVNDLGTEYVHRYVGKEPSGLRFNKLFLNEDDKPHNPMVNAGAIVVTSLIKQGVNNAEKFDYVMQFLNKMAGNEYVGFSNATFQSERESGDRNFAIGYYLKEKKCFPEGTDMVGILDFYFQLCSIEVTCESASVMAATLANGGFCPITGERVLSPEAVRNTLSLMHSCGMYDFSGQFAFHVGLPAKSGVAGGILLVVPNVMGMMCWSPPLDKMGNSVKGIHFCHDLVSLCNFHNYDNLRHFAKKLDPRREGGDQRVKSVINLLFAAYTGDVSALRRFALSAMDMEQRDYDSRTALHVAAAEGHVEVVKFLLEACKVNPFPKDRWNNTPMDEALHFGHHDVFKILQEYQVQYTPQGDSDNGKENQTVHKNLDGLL
The data set is described as follows: Allosteric inhibition of human GLS1 using glutamine as substrate incubated for 60 mins by NADH/NADPH-based absorbance analysis.

Data set [2] in a line: Metabolic stability in human liver microsomes assessed as intrinsic clearance at 10 uM by LC-MS/MS analysis. Format: ADME, Microsome. To be noted: read-out: CLH.
The nature of data set [3]: Metabolic stability in human liver microsomes assessed as half life at 10 uM by LC-MS/MS analysis. To be noted: liver microsomes. Format: ADME, Microsome.
The nature of data set [4]: Metabolic stability in human plasma assessed as parent compound remaining at 1 uM measured after 2 hrs by LC-MS/MS analysis. The settings on record: read-out: Stability. It is filed as ADME, cell-free.
The test system of data set [5] is HCT-116. The data set is described as follows: Antiproliferative activity against human HCT-116 cells overexpressing GLS1 assessed as inhibition of cell proliferation measured after 72 hrs by MTT assay. To be noted: HCT-116, 72 h. It is filed as functional, cell-based.
In data set [6] the test system is MDA-MB-436. The data set is described as follows: Antiproliferative activity against human MDA-MB-436 cells overexpressing GLS1 assessed as inhibition of cell proliferation measured after 72 hrs by MTT assay. Format: functional, cell-based. The settings on record: MDA-MB-436, 72 h.

For `CO[C@H](C(=O)Nc1nnc(NC2CCN(c3nnc(NC(=O)CCc4cn(Cc5ccc(C(F)(F)F)cc5)nn4)s3)CC2)s1)c1ccccc1`, the IC50 came out at 23.7 nM in data set [1], 300 nM in data set [5] and 1090 nM in data set [6]. Further, the microsomal CLint at 10 µM in data set [2] came to 9.21 µL/min/mg. The half-life at 10 µM in data set [3] came to 189 min. Also, the remaining at 2 h, 1 µM in data set [4] worked out at 95%.
As for `O=C(Cc1ccccc1)Nc1nnc(N[C@@H]2CCN(c3nnc(NC(=O)CCc4cn(-c5ccc(C(F)(F)F)cc5)nn4)s3)C2)s1`, the IC50 worked out at 17.9 nM in data set [1], 850 nM in data set [5] and 2030 nM in data set [6].
Consider `COc1ccc(Cn2cc(CCC(=O)Nc3ccc(N4CCC(Nc5nnc(NC(=O)Cc6ccccn6)s5)CC4)nn3)nn2)cc1`, for which the results for the IC50 in data set [1], in data set [5] and in data set [6] were 24.9 nM, 1450 nM and 2040 nM, respectively.
Consider `Nc1nnc(NC2CCN(c3ccc(NC(=O)CCc4cn(Cc5ccc(OC(F)(F)F)cc5)nn4)nn3)CC2)s1`, for which, in data set [1], the half-inhibitory concentration (IC50) was above 10000 nM.
As to `O=C(Cc1ccccc1)Nc1nnc(N[C@H]2CCN(c3nnc(NC(=O)CCc4cn(-c5ccc(C(F)(F)F)cc5)nn4)s3)C2)s1`, the IC50 in data set [1] was 216 nM; in data set [5] it was 15500 nM; in data set [6], above 20000 nM.
In the same order, the values of `COc1ccc(Cn2cc(CCC(=O)Nc3nnc(N4CCC(Nc5nnc(NC(=O)Cc6ccccc6)s5)CC4)s3)nn2)cc1OC` are 77.5 nM, 3250 nM and 4210 nM.
In data set [1], `COc1ccc(Cn2cc(CCC(=O)Nc3ccc(N4CCC(Nc5nnc(N)s5)CC4)nn3)nn2)cc1OC` yielded a 50% inhibitory concentration (IC50) above 10000 nM.
With `Cc1ccc(Cn2cc(CCC(=O)Nc3ccc(N4CC[C@@H](Nc5nnc(NC(=O)Cc6ccccn6)s5)C4)nn3)nn2)cc1`, the IC50 was found to be 8.9 nM in data set [1], 490 nM in data set [5] and 840 nM in data set [6].
In the same order, the values of `COc1ccc(Cn2cc(CCC(=O)Nc3nnc(N4CCC(Nc5nnc(NC(=O)Cc6ccccc6)s5)CC4)s3)nn2)cc1` are 14.7 nM, 410 nM and 620 nM.
On the same counts, the results for `Cc1cccc(C)c1Cn1cc(CCC(=O)Nc2ccc(N3CC[C@@H](Nc4nnc(NC(=O)Cc5ccccn5)s4)C3)nn2)nn1` are 41.8 nM, 3640 nM and 4290 nM.
In the same order, the values of `Cc1ccc(Cn2cc(CCC(=O)Nc3ccc(N4CCC(Nc5nnc(NC(=O)Cc6ccccn6)s5)CC4)nn3)nn2)cc1` are 20 nM, 570 nM and 470 nM.
Turning to `O=C(CCc1cn(Cc2ccc(OC(F)(F)F)cc2)nn1)Nc1ccc(N2CC[C@H](Nc3nnc(NC(=O)Cc4ccccn4)s3)C2)nn1`, the IC50 was above 1000 nM in data set [1], above 20000 nM in data set [5] and above 20000 nM in data set [6].
Regarding `O=C(CCc1cn(Cc2ccc(OC(F)(F)F)cc2)nn1)Nc1ccc(N2CCC(Nc3nnc(NC(=O)Cc4ccccn4)s3)CC2)nn1`, the 50% inhibitory concentration (IC50) in data set [1] was 17.2 nM; in data set [5], 1240 nM; in data set [6], 1020 nM.
As for `Cc1ccc(Cn2cc(CCC(=O)Nc3nnc(N4CC[C@@H](Nc5nnc(NC(=O)Cc6ccccc6)s5)C4)s3)nn2)cc1`, the IC50 amounted to 16.6 nM in data set [1], 350 nM in data set [5] and 530 nM in data set [6].
On the same counts, the results for `O=C(CCc1cn(Cc2ccc(C(F)(F)F)cc2)nn1)Nc1ccc(N2CC[C@H](Nc3nnc(NC(=O)Cc4ccccn4)s3)C2)nn1` are above 1000 nM, above 20000 nM and above 20000 nM.
Molecule `Cc1ccc(Cn2cc(CCC(=O)Nc3ccc(N4CCC(Nc5nnc(N)s5)CC4)nn3)nn2)cc1` registered an IC50 in data set [1] above 10000 nM.
For the molecule `O=C(CCc1cn(Cc2ccc(C(F)(F)F)cc2)nn1)Nc1ccc(N2CCC(Nc3nnc(NC(=O)Cc4ccccn4)s3)CC2)nn1`, the IC50 was 18.3 nM in data set [1], 530 nM in data set [5] and 840 nM in data set [6].
Turning to `Cc1cccc(C)c1Cn1cc(CCC(=O)Nc2ccc(N3CCC(Nc4nnc(NC(=O)Cc5ccccn5)s4)CC3)nn2)nn1`, the results for the IC50 in data set [1], in data set [5] and in data set [6] were 67.8 nM, 6090 nM and 6980 nM, respectively.
On the same counts, the results for `Cc1ccc(Cn2cc(CCC(=O)Nc3nnc(N4CC[C@H](Nc5nnc(NC(=O)Cc6ccccc6)s5)C4)s3)nn2)cc1` are 312 nM, 12500 nM and above 20000 nM.
In the case of `COc1ccc(Cn2cc(CCC(=O)Nc3ccc(N4CC[C@@H](Nc5nnc(NC(=O)Cc6ccccn6)s5)C4)nn3)nn2)cc1`, the IC50 in data set [1] worked out at 11.3 nM; in data set [5], 680 nM; in data set [6], 1540 nM.
Consider `Nc1nnc(NC2CCN(c3ccc(NC(=O)CCc4cn(Cc5ccc(C(F)(F)F)cc5)nn4)nn3)CC2)s1`, for which, in data set [1], the IC50 was above 10000 nM.
`O=C(CCc1cn(Cc2ccc(C(F)(F)F)cc2)nn1)Nc1ccc(N2CC[C@@H](Nc3nnc(NC(=O)Cc4ccccn4)s3)C2)nn1`: the 50% inhibitory concentration (IC50) in data set [1] is 10.3 nM; in data set [5], 510 nM; in data set [6], 730 nM.
In the same order, the values of `Cc1ccc(Cn2cc(CCC(=O)Nc3nnc(N4CCC(Nc5nnc(NC(=O)Cc6ccccc6)s5)CC4)s3)nn2)cc1` are 12.4 nM, 350 nM and 420 nM.
On the same counts, the results for `COc1ccc(Cn2cc(CCC(=O)Nc3ccc(N4CC[C@H](Nc5nnc(NC(=O)Cc6ccccn6)s5)C4)nn3)nn2)cc1` are above 1000 nM, above 20000 nM and above 20000 nM.
Take `O=C(Cc1ccccc1)Nc1nnc(N[C@H]2CCN(c3nnc(NC(=O)CCc4cn(Cc5ccc(C(F)(F)F)cc5)nn4)s3)C2)s1`: the IC50 in data set [1] is 227 nM; in data set [5], 8270 nM; in data set [6], above 20000 nM.
In the same order, the values of `O=C(Cc1ccccc1)Nc1nnc(N[C@H]2CCN(c3nnc(NC(=O)CCc4cn(Cc5ccc(OC(F)(F)F)cc5)nn4)s3)C2)s1` are 381 nM, 10100 nM and above 20000 nM.
In the same order, the values of `O=C(Cc1ccccc1)Nc1nnc(N[C@@H]2CCN(c3nnc(NC(=O)CCc4cn(Cc5ccc(C(F)(F)F)cc5)nn4)s3)C2)s1` are 12.4 nM, 290 nM and 630 nM.
As to `COc1ccc(Cn2cc(CCC(=O)Nc3nnc(N4CC[C@H](Nc5nnc(NC(=O)Cc6ccccc6)s5)C4)s3)nn2)cc1`, the IC50 is 544 nM in data set [1], 14200 nM in data set [5] and above 20000 nM in data set [6].
In the same order, the values of `O=C(Cc1ccccc1)Nc1nnc(N[C@@H]2CCN(c3nnc(NC(=O)CCc4cn(Cc5ccc(OC(F)(F)F)cc5)nn4)s3)C2)s1` are 16.7 nM, 580 nM and 1650 nM.
On the same counts, the results for `COc1ccc(Cn2cc(CCC(=O)Nc3nnc(N4CC[C@@H](Nc5nnc(NC(=O)Cc6ccccc6)s5)C4)s3)nn2)cc1` are 57 nM, 560 nM and 760 nM.
On the same counts, the results for `COc1ccc(Cn2cc(CCC(=O)Nc3ccc(N4CC[C@@H](Nc5nnc(NC(=O)Cc6ccccn6)s5)C4)nn3)nn2)cc1OC` are 35.7 nM, 3880 nM and 4480 nM.
`O=C(CCc1cn(Cc2ccc(OC(F)(F)F)cc2)nn1)Nc1ccc(N2CC[C@@H](Nc3nnc(NC(=O)Cc4ccccn4)s3)C2)nn1`: the IC50 came to 13.6 nM in data set [1], 700 nM in data set [5] and 880 nM in data set [6].
As for `COc1ccc(Cn2cc(CCC(=O)Nc3ccc(N4CCC(Nc5nnc(NC(=O)Cc6ccccn6)s5)CC4)nn3)nn2)cc1OC`, the IC50 in data set [1] was 60.7 nM; in data set [5] it was 5750 nM; in data set [6] it was 6720 nM.
In the same order, the values of `O=C(Cc1ccccc1)Nc1nnc(NC2CCN(c3nnc(NC(=O)CCc4cn(Cc5ccc(OC(F)(F)F)cc5)nn4)s3)CC2)s1` are 17.1 nM, 190 nM and 400 nM.
In the same order, the values of `Cc1ccc(Cn2cc(CCC(=O)Nc3ccc(N4CC[C@H](Nc5nnc(NC(=O)Cc6ccccn6)s5)C4)nn3)nn2)cc1` are above 1000 nM, above 20000 nM and above 20000 nM.
In the same order, the values of `Cc1cccc(C)c1Cn1cc(CCC(=O)Nc2nnc(N3CCC(Nc4nnc(NC(=O)Cc5ccccc5)s4)CC3)s2)nn1` are 69.1 nM, 3960 nM and 4580 nM.
The molecule `Cc1cccc(C)c1Cn1cc(CCC(=O)Nc2ccc(N3CCC(Nc4nnc(N)s4)CC3)nn2)nn1` displayed an IC50 in data set [1] above 10000 nM.
Still for that read-out and setting: the figure for `COc1ccc(Cn2cc(CCC(=O)Nc3ccc(N4CCC(Nc5nnc(N)s5)CC4)nn3)nn2)cc1` is above 10000 nM.
